Assay results as given in patent US20240246918A1, “COMPOUNDS AND COMPOSITIONS AS EIF4E INHIBITORS AND THE USES THEREOF” (Ribometrix, Inc., priority 2022, published 2024).

Experiments:
[1] = target: T1, human eIF4E protein (Homo sapiens, UniProt P06730); experiment: Biochemical competitive binding assay (TR-FRET competition, EDA-m7GDP-ATTO-647N probe); details: read-out: hEIF4E TR-FRET IC50
T1 construct: purchased Novus NBP-45314
In short: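 IC50 values come from 4-parameter fits of the normalized 665/620 nm TR-FRET ratio. Compound was first incubated 15 min with 4 nM recombinant His-eIF4E bound to 2.5 nM Eu-anti-His antibody, then 15 min with 5 nM m7GDP-ATTO-647N tracer, in pH 7.5 HEPES buffer with 100 mM KCl, Tween-20 and BSA.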

[2] = test system: COLO 205 colorectal tumor cells; experiment: Tumor cell viability inhibition assay (CellTiter-Glo 2.0, 72 hours); assay type: cell-based; details: COLO 205 cell viability
In short: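 IC50 derived by 4-parameter fitting after normalizing luminescence to DMSO and max-inhibition wells. Compounds tested as 11 concentrations in 4-fold steps on COLO 205 cells seeded at 1500 per well in RPMI-1640/10% FBS; ATP content measured with CellTiter-Glo 2.0 after 72 h.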

T1 sequence (P06730 whole entry): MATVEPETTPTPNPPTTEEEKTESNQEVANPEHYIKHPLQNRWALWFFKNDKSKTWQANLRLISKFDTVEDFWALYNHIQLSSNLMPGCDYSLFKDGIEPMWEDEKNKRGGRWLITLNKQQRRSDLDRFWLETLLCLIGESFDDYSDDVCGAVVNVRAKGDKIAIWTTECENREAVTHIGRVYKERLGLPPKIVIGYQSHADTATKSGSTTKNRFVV

| SMILES | IC50 [1] [µM] | IC50 ([2]; Homo sapiens, COLO 205, 72 h) [µM] | IC50 [2] [µM] |
| --- | --- | --- | --- |
| Cc1cc(-c2cc(Cl)ccc2OCCn2c(C)nc3c(c2=O)C[C@@H](N(C)[C@H]2CC[C@@](C)(O)C2)CC3)c2scc(C(=O)O)c2n1 (single isomer, unassigned) [Compound 184] | < 0.1 | > 20 |  |
| Cc1cc(-c2cc(Cl)ccc2OCCn2c(C)nc3c(c2=O)C[C@H](N2CCC[C@H](C(F)(F)F)C2)CC3)c2scc(C(=O)O)c2n1 (single isomer, unassigned) [Compound 381] | < 0.1 | < 5 |  |
| Cc1cc(-c2cc(Cl)ccc2OCCn2c(C)nc3c(c2=O)C[C@@H](N2CCC(c4nccs4)CC2)CC3)c2scc(C(=O)O)c2n1 (single isomer, unassigned) [Compound 476] | < 0.1 | < 5 |  |
| Cc1cc(-c2cc(Cl)ccc2OCCn2c(C)nc3c(c2=O)C[C@@H](N2CCC(n4cc(Cl)cn4)CC2)CC3)c2scc(C(=O)O)c2n1 (single isomer, unassigned) [Compound 109] | < 0.1 | < 5 |  |
| Cc1cc(-c2cc(Cl)ccc2OCCn2c(C)nc3c(c2=O)C[C@@H](N2CCC(n4cccn4)CC2)CC3)c2scc(C(=O)O)c2n1 (single isomer, unassigned) [Compound 474] | < 0.1 | < 5 |  |
| Cc1cc(-c2cc(Cl)ccc2OCCn2c(C)nc3c(c2=O)C[C@H](N2CCC[C@@H](C(F)(F)F)C2)CC3)c2scc(C(=O)O)c2n1 (single isomer, unassigned) [Compound 382] | < 0.1 | < 5 |  |
| Cc1cc(-c2cc(Cl)ccc2OCCn2c(C)nc3c(c2=O)CC(N2CC4(CCC(F)(F)CC4)C2)CC3)c2scc(C(=O)NS(C)(=O)=O)c2n1 (single isomer, unassigned) [Compound 363] | < 0.1 | < 5 |  |
| Cc1cc(-c2cc(Cl)ccc2OCCn2c(C)nc3c(c2=O)C[C@@H](N2CCC(N4CC(F)(F)C4)CC2)CC3)c2scc(C(=O)O)c2n1 (single isomer, unassigned) [Compound 110] | < 0.1 | 5 to 20 |  |
| Cc1cc(-c2cc(Cl)ccc2OCCn2c(C)nc3c(c2=O)C[C@@H](N2CCO[C@H](COC(F)(F)F)C2)CC3)c2scc(C(=O)O)c2n1 (single isomer, unassigned) [Compound 480] | < 0.1 | < 5 |  |
| Cc1cc(-c2cc(Cl)ccc2OCCn2c(C)nc3c(c2=O)C[C@@H](N2CCC[C@H](OC(F)(F)F)C2)CC3)c2scc(C(=O)O)c2n1 (single isomer, unassigned) [Compound 472] | < 0.1 | < 5 |  |
| Cc1cc(-c2cc(Cl)ccc2OCCn2c(C)nc3c(c2=O)CC(N2CCC(c4cccc(C(F)(F)F)c4)CC2)CC3)c2scc(C(=O)O)c2n1 (stereo not drawn) [Compound 127] | < 0.1 | < 5 |  |
| Cc1cc(-c2cc(Cl)ccc2OCCn2c(C)nc3c(c2=O)CC(N2CCC(OC(F)(F)F)CC2)CC32CC2)c2scc(C(=O)O)c2n1 (single isomer, unassigned) [Compound 379, 7-(5-chloro-2-(2-(2′-methyl-4′-oxo-6′-(4-(trifluoromethoxy)piperidin-1-yl)-6′,7′-dihydro-4′H-spiro[cyclopropane-1,8′-quinazolin]-3′(5′H)-yl)ethoxy)phenyl)-5-methylthieno[3,2-b]pyridine-3-carboxylic acid] | < 0.1 | < 5 |  |
| Cc1cc(-c2cc(Cl)ccc2OCCn2c(C)nc3c(c2=O)C[C@@H](N2CCC(c4cncc(S(=O)(=O)NC(C)(C)C)c4)CC2)CC3)c2scc(C(=O)O)c2n1 (single isomer, unassigned) [Compound 456] | < 0.1 | 5 to 20 |  |

Next, values leading:

| IC50 [1] [µM] | IC50 ([2]; Homo sapiens, COLO 205, 72 h) [µM] | IC50 [2] [µM] | SMILES |
| --- | --- | --- | --- |
| < 0.1 | < 5 |  | Cc1cc(-c2cc(Cl)ccc2OCCn2c(C)nc3c(c2=O)C[C@H](N2CCCC[C@@H]2c2cccc(F)c2)CC3)c2scc(C(=O)O)c2n1 (single isomer, unassigned) [Compound 541] |
| < 0.1 | < 5 |  | Cc1cc(-c2cc(Cl)ccc2OCCn2c(C)nc3c(c2=O)C[C@@H](N2CCC(c4cnc(C(F)(F)F)nc4)CC2)CC3)c2scc(C(=O)O)c2n1 (single isomer, unassigned) [Compound 585] |
| < 0.1 | > 20 |  | Cc1cc(-c2cc(Cl)ccc2OCCn2c(C)nc3c(c2=O)CC(N2CC4(CCCNC4)C2)CC3)c2scc(C(=O)O)c2n1 (single isomer, unassigned) [Compound 509] |
| < 0.1 | < 5 |  | Cc1cc(-c2cc(Cl)ccc2OCCn2c(C)nc3c(c2=O)C[C@H](N2CCC(Oc4ccc(F)cc4F)CC2)CC3)c2scc(C(=O)O)c2n1 (single isomer, unassigned) [Compound 595] |
| 0.1 to 0.5 | 5 to 20 |  | Cc1cc(-c2cc(Cl)ccc2OCCn2c(C)nc3c(c2=O)C[C@@H](N2CCCC(C)[C@@H]2C(F)(F)F)CC32CC2)c2scc(C(=O)O)c2n1 (single isomer, unassigned) [Compound 625] |
| < 0.1 | < 5 |  | Cc1nc2c(c(=O)n1CC#Cc1ccc(Cl)cc1-c1ccnc3c(C(=O)O)csc13)CC(N1CCC(OC(F)(F)F)CC1)CC2 (single isomer, unassigned) [Compound 534] |
| < 0.1 | < 5 |  | Cc1cc(-c2cc(Cl)ccc2OCCn2c(C)nc3c(c2=O)CC(N2CCC(OC(F)(F)F)CC2)CC32CC2)c2scc(C(=O)NS(C)(=O)=O)c2n1 (single isomer, unassigned) [Compound 579, 7-(5-chloro-2-(2-(2′-methyl-4′-oxo-6′-(4-(trifluoromethoxy)piperidin-1-yl)-6′,7′-dihydro-4′H-spiro[cyclopropane-1,8′-quinazolin]-3′(5′H)-yl)ethoxy)phenyl)-5-methyl-N-(methylsulfonyl)thieno[3,2-b]pyridine-3-carboxamide] |
| < 0.1 |  | < 5 | Cc1cc(-c2cc(Cl)ccc2OCCn2c(C)nc3c(c2=O)CC(C)(N2CCC(OC(F)(F)F)CC2)CC3)c2scc(C(=O)O)c2n1 (single isomer, unassigned) [Compound 516] |
| < 0.1 | < 5 |  | Cc1cc(-c2cc(Cl)ccc2OCCn2c(C)nc3c(c2=O)C[C@H](N2CCC[C@]4(C2)CC4(F)F)CC32CC2)c2scc(C(=O)O)c2n1 (single isomer, unassigned) [Compound 581] |
| < 0.1 |  | < 5 | COC1CCN(C2(C)CCc3nc(C)n(CCOc4ccc(Cl)cc4-c4cc(C)nc5c(C(=O)O)csc45)c(=O)c3C2)CC1(C)C (single isomer, unassigned) [Compound 565] |
| < 0.1 | < 5 |  | Cc1cc(-c2cc(Cl)ccc2OCCn2c(C)nc3c(c2=O)C[C@@H](N2CCC(Oc4ccc(F)cc4F)CC2)CC3)c2scc(C(=O)O)c2n1 (single isomer, unassigned) [Compound 596] |
| < 0.1 | 5 to 20 |  | Cc1cc(-c2cc(Cl)ccc2OCCn2c(C)nc3c(c2=O)C[C@@H](N2CCCC[C@H]2C(F)(F)F)CC32CC2)c2scc(C(=O)O)c2n1 (single isomer, unassigned) [Compound 630] |
| < 0.1 | < 5 |  | CO[C@H](C1CCN([C@H]2CCc3nc(C)n(CCOc4ccc(Cl)cc4-c4cc(C)nc5c(C(=O)O)csc45)c(=O)c3C2)CC1)C(F)(F)F (single isomer, unassigned) [Compound 563] |
| < 0.1 |  | < 5 | Cc1cc(-c2cc(Cl)ccc2C#CCn2c(C)nc3c(c2=O)CC(C)(N2CCCC4(C2)CC4(F)F)CC3)c2scc(C(=O)O)c2n1 (single isomer, unassigned) [Compound 614] |
